# Assay results from the supplement of paper PMC10307832.
# Columns and labels:
# Test in all cases: relative viability (nuclei count vs DMSO), 5 days (fraction); higher = more cells survive
# [1] = compound: O[C@H]1CC[C@H](Nc2ncc3nc(Nc4c(F)cc(F)cc4F)n([C@H]4CCOC4)c3n2)CC1 [Tanzisertib] + CC(=O)c1c(C)c2cnc(Nc3ccc(N4CCNCC4)cn3)nc2n(C2CCCC2)c1=O [Palbociclib] (partner 0.5 µM)
# Summary of the method: (§1)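 Relative viability is defined as nuclei in treated wells over nuclei in vehicle wells. Duplicate plates were run and medians reported. Lung cancer cell lines in 1536-well plates were dosed by pin tool one day after seeding, with one drug or with a fixed anchor-drug dose plus five library-drug doses (not always all listed) in √10 steps, and nuclei were counted after 5 days.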
# [2] = compound: C[C@@H](N)c1ccc(C(=O)Nc2ccnc3[nH]ccc23)cc1 + C[C@]1(O)C[C@@H](c2nc(-c3ccc4ccc(-c5ccccc5)nc4c3)c3c(N)nccn32)C1 [Linsitinib] (partner 1 µM)
# Summary of the method: as §1
# [3] = compound: C[C@@H](N)c1ccc(C(=O)Nc2ccnc3[nH]ccc23)cc1 + CS(=O)(=O)N1CCN(Cc2cc3nc(-c4cccc5[nH]ncc45)nc(N4CCOCC4)c3s2)CC1 [Pictilisib] (partner 1 µM)
# Summary of the method: as §1
# [4] = compound: O[C@H]1CC[C@H](Nc2ncc3nc(Nc4c(F)cc(F)cc4F)n([C@H]4CCOC4)c3n2)CC1 [Tanzisertib] + Nc1nc2[nH]cc(CCc3ccc(C(=O)N[C@@H](CCC(=O)O)C(=O)O)cc3)c2c(=O)[nH]1 [Pemetrexed] (partner 0.2 µM)
# Summary of the method: as §1
Cell Line,relative viability ([1]; first compound 0.08 µM),relative viability ([1]; first compound 0.253 µM),relative viability ([1]; first compound 0.8 µM),relative viability ([1]; first compound 2.53 µM),relative viability ([1]; first compound 8 µM),relative viability ([2]; first compound 0.04 µM),relative viability ([2]; first compound 0.1265 µM),relative viability ([2]; first compound 0.4 µM),relative viability ([2]; first compound 1.265 µM),relative viability ([2]; first compound 4 µM),relative viability ([3]; first compound 0.04 µM),relative viability ([3]; first compound 0.1265 µM),relative viability ([3]; first compound 0.4 µM),relative viability ([3]; first compound 1.265 µM),relative viability ([3]; first compound 4 µM),relative viability ([4]; first compound 0.08 µM),relative viability ([4]; first compound 0.253 µM),relative viability ([4]; first compound 0.8 µM),relative viability ([4]; first compound 2.53 µM),relative viability ([4]; first compound 8 µM)
NCI-H727,0.74,0.673,0.614,0.676,0.626,0.135,0.559,0.493,0.736,0.785,0.63,0.466,0.785,0.223,0.683,–,–,–,–,–
HARA,0.247,0.313,0.257,0.193,0.267,1.09,1.06,1.15,0.996,0.521,0.634,0.517,0.432,0.475,0.292,0.282,0.275,0.282,0.24,0.245
NCI-H2228,1.12,0.818,0.684,0.741,0.655,0.63,0.587,0.62,0.637,0.82,0.441,0.503,0.335,0.319,0.491,0.371,0.288,0.378,0.355,0.348
LCLC-97TM1,0.222,0.243,0.215,0.204,0.229,0.192,0.2,0.202,0.29,0.349,0.257,0.176,0.259,0.106,0.421,0.172,0.164,0.146,0.169,0.173
LC-2-ad,0.484,0.548,0.471,0.441,0.502,0.849,0.922,0.877,0.83,0.615,0.641,0.43,0.696,0.592,0.372,0.282,0.292,0.275,0.272,0.294
SK-LU-1,0.455,0.388,0.37,0.384,0.389,1.09,1.1,1.19,0.956,0.637,0.589,0.621,0.549,0.608,0.544,1.07,0.949,1.02,0.969,0.979
EKVX,0.455,0.388,0.363,0.414,0.355,1.12,1.13,1.2,1.19,1.01,0.582,0.489,0.532,0.467,0.443,0.467,0.341,0.41,0.34,0.337
HCC-827,0.533,0.468,0.475,0.429,0.24,0.972,0.94,0.911,0.925,0.843,1.22,1.27,1.12,0.978,0.783,0.266,0.229,0.25,0.251,0.175
NCI-H650,0.341,0.342,0.302,0.33,0.325,0.723,0.751,0.841,–,0.658,0.81,0.753,0.704,–,0.708,0.885,1.03,0.969,1.09,0.576
CAL-12T,0.486,0.447,0.539,0.422,0.279,0.928,0.888,0.88,1.09,0.719,0.544,0.76,0.66,–,0.437,1.06,1.24,1.12,1.21,1.18
NCI-H2342,0.539,0.542,0.52,0.497,0.582,–,–,–,–,–,–,–,–,–,–,0.867,0.749,0.768,0.708,0.668
SW 900,–,0.522,0.557,0.56,0.454,–,–,–,–,–,–,–,–,–,–,–,0.51,0.501,0.451,0.464
IA-LM,–,–,–,–,–,0.801,0.665,0.847,0.904,0.759,0.456,0.484,0.752,0.676,0.835,–,–,–,–,–
EPLC-272H,0.374,0.316,0.326,0.306,0.287,1.34,1.24,1.28,–,1.13,0.387,0.34,0.339,–,0.297,0.296,0.306,0.388,0.475,0.289
A-427,0.565,0.538,0.52,0.507,0.511,1.08,1.11,1.06,–,1.12,0.658,0.766,0.66,–,0.793,0.958,0.99,0.998,1.04,0.916
NCI-H647,0.364,0.506,0.381,0.427,0.439,1.14,1.18,1.22,1.28,0.976,0.301,0.394,0.451,–,0.42,0.204,0.185,0.18,0.151,0.156
NCI-H1975,0.735,0.575,0.515,0.562,0.549,1.01,0.915,0.964,0.778,0.619,0.281,0.281,0.287,0.228,0.236,0.304,0.294,0.267,0.317,0.254
NCI-H358,0.129,0.134,0.127,0.127,0.148,0.707,0.655,0.732,0.801,0.702,0.339,0.31,0.33,0.289,0.326,0.165,0.176,0.171,0.163,0.179
PC-3 [JPC-3],0.539,0.53,0.576,0.521,0.571,0.963,1.05,0.978,1,0.879,0.741,0.784,0.788,0.632,0.683,1.16,1.3,1.23,1.04,0.466
NCI-H1792,0.7,0.66,0.654,0.64,0.573,0.631,0.475,0.558,0.676,0.572,0.368,0.273,0.38,0.349,0.288,1.2,0.694,0.876,0.763,0.625

Cell Line,relative viability ([1]; first compound 0.08 µM),relative viability ([1]; first compound 0.253 µM),relative viability ([1]; first compound 0.8 µM),relative viability ([1]; first compound 2.53 µM),relative viability ([1]; first compound 8 µM),relative viability ([2]; first compound 0.04 µM),relative viability ([2]; first compound 0.1265 µM),relative viability ([2]; first compound 0.4 µM),relative viability ([2]; first compound 1.265 µM),relative viability ([2]; first compound 4 µM),relative viability ([3]; first compound 0.04 µM),relative viability ([3]; first compound 0.1265 µM),relative viability ([3]; first compound 0.4 µM),relative viability ([3]; first compound 1.265 µM),relative viability ([3]; first compound 4 µM),relative viability ([4]; first compound 0.08 µM),relative viability ([4]; first compound 0.253 µM),relative viability ([4]; first compound 0.8 µM),relative viability ([4]; first compound 2.53 µM),relative viability ([4]; first compound 8 µM)
NCI-H596,–,–,–,–,–,1.06,1.05,1.22,1.09,1.01,0.435,0.44,0.408,0.416,0.319,0.506,0.538,0.515,0.516,0.467
RERF-LC-KJ,1.12,1.01,1.25,1.05,1.05,0.896,0.871,0.998,0.944,0.861,0.575,0.541,0.558,0.585,0.492,0.429,0.468,0.486,0.423,0.442
NCI-H322M,0.475,0.459,0.475,0.472,0.534,1.02,1.12,0.93,–,1.1,0.681,0.536,0.561,–,0.731,0.644,0.657,0.566,0.621,0.548
COR-L 105,0.411,0.4,0.407,0.417,0.39,0.917,1.02,0.857,0.845,0.436,0.435,0.297,0.399,0.255,0.309,1.4,1.12,1.14,1.28,0.884
NCI-H1993,0.652,0.531,0.611,0.617,0.595,0.824,0.753,–,0.834,0.663,0.801,0.865,–,0.812,0.833,0.621,0.585,0.605,0.561,0.54
NCI-H1437,0.333,0.291,0.315,0.32,0.262,1.14,1.04,1.07,1.14,0.897,0.468,0.419,0.407,0.396,0.488,0.321,0.327,0.322,0.315,0.263
NCI-H838,0.233,0.225,0.219,0.228,0.198,0.945,0.905,0.796,0.533,0.367,0.402,0.421,0.335,0.31,0.317,0.234,0.255,0.254,0.233,0.25
EBC-1,–,–,–,–,–,1.07,0.873,0.961,1.05,0.86,0.38,0.408,0.347,0.473,0.593,–,–,–,–,–
ABC-1,0.927,0.597,0.946,0.818,0.824,0.894,0.81,0.998,0.911,0.683,0.804,0.832,1.07,0.484,0.769,–,–,–,–,–
NCI-H1650,0.297,0.326,0.404,0.351,0.314,–,–,–,–,–,0.672,0.584,0.595,0.318,0.586,0.349,0.351,0.511,0.33,0.329
NCI-H1563,–,–,–,–,–,1.25,1.16,1.14,1.13,1.27,0.691,0.661,0.638,0.578,0.688,0.829,0.935,0.761,0.711,0.619
NCI-H1648,0.228,0.267,0.212,0.229,0.251,–,–,–,–,–,–,–,–,–,–,0.689,0.698,0.775,0.754,0.735
NCI-H1299,–,–,–,–,–,0.945,0.977,0.939,0.956,0.85,0.874,0.921,0.973,0.892,0.678,–,–,–,–,–
A549,–,–,–,–,–,0.674,0.666,0.726,0.775,0.619,0.596,0.526,0.597,0.525,0.428,–,–,–,–,–
NCI-H1703,–,–,–,–,–,0.695,0.964,0.54,–,0.536,0.235,0.247,0.205,0.234,0.197,–,–,–,–,–
NCI-H2170,0.415,0.39,0.36,0.428,0.406,–,–,–,–,–,0.337,0.319,0.295,0.204,0.266,0.265,0.292,0.282,0.265,0.251
NCI-H522,1.05,0.984,0.959,1.13,0.899,–,–,–,–,–,–,–,–,–,–,1.04,1.07,0.915,1.07,1.05
Calu-6,–,–,–,–,–,0.757,0.952,0.984,0.922,0.839,0.952,0.988,0.854,0.928,0.75,–,–,–,–,–
ChaGo-K-1,0.977,0.927,0.91,0.889,0.903,–,–,–,–,–,0.777,0.937,0.988,–,0.696,0.251,0.25,0.242,0.261,0.274
